The text below walks through data of EP0304244A2, “Propanediol derivatives, their production and use” (Takeda Chemical Industries, Ltd., priority 1987, dated 1989).

The structures appear in SMILES notation.

Test [1] deals with HL-60 cells (myelogenous leukemia cell lines). As to the kind of experiment: Inhibition of multiplication of HL-60 cells ([3H]thymidine incorporation). It is filed as cell-based. Particulars: Homo sapiens; HL-60 cells 2 x 10⁵cells/mℓ in GIT medium; 20 hours incubation then 4 hours with [³H]thymidine; 50% of the control group; read-out: Inhibition of Propagation of HL-60 cells(IC₅₀ : µg/mℓ). How it is done:
The effect of the compound of this invention in inhibiting multiplication of myelogenous leukemia cells (HL-60) is shown in Table 1. The assay was conducted as follows. HL-60 cells (myelogenous leukemia cell lines) were suspended (2 x 10⁵cells/mℓ) in a GIT culture medium (Wako Pure Chemical Industries, Ltd.). Each hole of a 96-hole Microwell plate was inoculated with 0.2 mℓ of the suspension. The plate was incubated statically for 20 hours (37°C and 5% CO₂), to which was added 1 µCi of [³H]thymidine(5 Ci/mmol.), and the incubation was continued for further 4 hours. For determination of the amount of thymidine incorporated into cells, acid-insoluble fractions were collected with a glass-filter, and the radioactivity was determined by means of a liquid scintillation counter. The concentration of the drug required for reducing the radioactivity incorporated into cells to 50% of the control group was assumed to be IC₅₀ value of the compound.
(Uptake of a labelled nucleoside into DNA is a usual measure of proliferation.)

The test system of test [2] is Sarcoma 180 cells. As to the kind of experiment: Antitumor action, intraperitoneal Sarcoma 180 in mice, life-span and survivors. In kind it is in vivo. Conditions: ICR mice, 1 x 10⁵ Sarcoma 180 cells i.p.; for Life-span prolonggation ratio (T/C,%): 0.33 mg/mouse i.p. three times (1 hour, 1 day, 2 days after inoculation), calculated only on died mice; for 60th day number of survivors/number of mice tested: 0.33 mg/mouse i.p. three times, 60th day after the initiation of the test. How it is done:
ICR mice (a group consisting of 5 mice) were inoculated intraperitoneally with 1 x 10⁵ Sarcoma 180 cells per mouse. Then, 0.33 mg/mouse of a compound dissolved in physiological saline was intraperitoneally administered three times, i.e. 1 hour, 1 day and 2 days after the inoculation. Shown in Table 2 are the lifespan prolongation ratio against the control group without treatment and the number of surviving mice on the 60th day after the initiation of the test.

For a further test, the system named is MM46 cells. As to the kind of experiment: Antitumor action, intraperitoneal MM46 in mice, life-span and survivors. It is filed as in vivo. Conditions: C3H/He mice, 1 x 10⁴ MM46 cells i.p.; 0.25 mg/mouse for 4 consecutive days from the second day after inoculation; 60th day after inoculation. Here is the method:
C3H/He mice (a group consisting of 5 mice) were inoculated intraperitoneally with 1 x 10⁴ MM46 cells per mouse, and given 0.25 mg/mouse of a drug for 4 consecutive days starting from the second day after the inoculation. Shown in Table 3 are the life-span prolongation ratio against the control group without treatment (provided that calculation was made on mice whose survival days were not longer than 60 days) and the number of surviving mice on the 60th day after the inoculation of MM46 cells.

Test [3] deals with Sarcoma 180 cells. The experiment in a line: Antitumor action, subcutaneous Sarcoma 180 in mice, oral dosing, tumor weight. It is filed as in vivo. Particulars: ICR mice, 1 x 10⁵ Sarcoma 180 cells in dorsal subcutis; 0.3 mg/mouse orally 9 times from the 8th day; tumor weighed on the 21st day. How it is done:
ICR mice (a group consisting of 6 mice) were inoculated with 1 x 10⁵ Sarcoma 180 cells per mouse in the dorsal subcutis, and then 0.3 mg/mouse of a test compound dissolved in physiological saline was orally administered 9 times starting from the 8th day (8th to 10th, 13th to 17th and 20th days). On the 21st day, a tumor was enucleated, and the weight of the tumor was measured. The ratio of tumor weight of the treated group against that of the control group without treatment by drug is shown in Table 4.

Consider `CCCCCCCCCCCCCCCCCCOCCCOCCCC[N+](C)(C)C.CS(=O)(=O)[O-]` [Compound of Working Example 1, N-[4-[3-(octadecyloxy)propoxy]butyl]N,N,N-trimethylammonium methanesulfonate], for which the IC50 in test [1] was found to be 1.25 µg/mL. Also, in the test on Sarcoma 180 cells [2], the “Life-span prolonggation ratio (T/C,%)” value is recorded as 295% and the “60th day number of survivors/number of mice tested” value is 2/5. The “60th day No. of survivors/No. of mice tested” value with MM46 cells is 5/5.
Regarding `CCCCCCCCCCCCCCCCCCOCCCOCCCC[n+]1ccccc1.CS(=O)(=O)[O-]` [Compound of Working Example 2, N-[4-[3-(octadecyloxy)propoxy]butyl]pyridinium methanesulfonate], the IC50 in test [1] came to 0.62 µg/mL.
For the compound `CCCCCCCCCCCCCCCCCCOCCCOCCCCCC[N+](C)(C)C.[Br-]` [Compound of Working Example 3, 6-[3-(octadecyloxy)propoxy]hexyl-N,N,N-trimethylammonium bromide], the IC50 in test [1] is 1.25 µg/mL. Moreover, the “Weight of tumor (T/C,%)” value with Sarcoma 180 cells [3] came out at 24%. In the test on Sarcoma 180 cells [2], the “Life-span prolonggation ratio (T/C,%)” value is reported as 342% and the “60th day number of survivors/number of mice tested” value is given as 2/5.
For `CCCCCCCCCCCCCCCCCCOCCCOCCC[N+](C)(C)C.[Br-]` [Compound of Working Example 4, 3-[3-(octadecyloxy)propoxy]propyl-N,N,N-trimethylammonium bromide], the IC50 in test [1] came to 1.25 µg/mL.
Regarding `CCCCCCCCCCCCCCCCCCOCCCOCCCCCCCC[N+](C)(C)C.[Cl-]` [Compound of Working Example 5, N-[8-[3-(octadecyloxy)propoxy]octyl]N,N,N-trimethylammonium chloride], the IC50 in test [1] amounted to 5 µg/mL.
As to `CCCCCCCCCCCCCCCCCCOCCCOCCCCC[N+](C)(C)C.[Cl-]` [Compound of Working Example 7, N-[5-[3-(octadecyloxy)propoxy]pentyl]N,N,N-trimethylammonium chloride], in test [1], the IC50 is 2.5 µg/mL.
On to `CCCCCCCCCCCCCCCCCCOCCCOCCCCC[n+]1ccccc1.[Cl-]` [Compound of Working Example 8, N-[5-[3-(octadecyloxy)propoxy]pentyl]pyridinium chloride], for which the IC50 in test [1] was 1.25 µg/mL.
